Common to all, as to experiment: Antibacterial activity (minimum inhibitory concentration), tube dilution method
Common to all, as to type: cell-based

Assay [1] deals with Staphylococcus aureus MS9861. The following applies: for MIC: Staphylococcus aureus. Here is the method:
(§1) The antibacterial activities of some typical compounds of this invention were measured by a tube dilution method in a brain heart infusion broth (pH 7.5) as a culture medium.

In assay [2] the test system is Bacillus subtilis NRRL B558. As to conditions: for MIC: Bacillus subtilis. Here is the method: as §1
For assay [3], the system named is Staphylococcus aureus 209P. How it is done:
as §1

Assay [4] relates to Klebsiella pneumoniae PCI602. How it is done:
as §1

Where [5] appears, read: MS9861, tube dilution method, brain heart infusion broth (pH 7.5), read-out: minimum inhibitory concentration, Staphylococcus aureus MS9861.
The mark [6] stands for this setting: NRRLB558, tube dilution method, brain heart infusion broth (pH 7.5), read-out: minimum inhibitory concentration, Bacillus subtilis NRRL B558.
[7] abbreviates: tube dilution method, brain heart infusion broth (pH 7.5), read-out: minimum inhibitory concentration, Staphylococcus aureus 209P.
[8] abbreviates: PCI602, tube dilution method, brain heart infusion broth (pH 7.5), read-out: minimum inhibitory concentration, Klebsiella pneumoniae PCI602.
[9] abbreviates: tube dilution method, brain heart infusion broth (pH 7.5).

The values that follow come from US4463171A, “Derivatives of macrolide antibiotics” (Sanraku-Ocean Co., Ltd., priority 1982, dated 1984).

Converted amounts (≈) assume the structure as drawn. Where two headings read alike, the source gives them in different places.

In the case of `CCC1OC(=O)CC(OC(C)=O)C(C)C(OC2OC(C)C(OC3CC(C)(O)C(OC(=O)CC(C)C)C(C)O3)C(N(C)C)C2O)C(CC=O)CC(C)C(=O)C=CC(C)=CC1CBr` (centres unmarked) [R1=COCH3, R3=drawing 68, AR4=Br, 3-O-Acetyl-23-deoxy-23-bromo-4"-O-isovaleryl-YO-9010], the MIC in assay [1] (setting [5]) was 3.1 µg/mL (≈ 3.33 µM); in assay [2] (setting [6]) it was 1.6 µg/mL (≈ 1.72 µM); in assay [3] (setting [7]), 1.6 µg/mL (≈ 1.72 µM); in assay [4] (setting [8]), over 100 µg/mL.

For the molecule `CCC1OC(=O)CC(O)C(C)C(OC2OC(C)C(OC3CC(C)(O)C(OC(=O)CC(C)C)C(C)O3)C(N(C)C)C2O)C(CC=O)CC(C)C(=O)C=CC(C)=CC1CSc1ccccc1` (centres unmarked) [R1=H, R3=drawing 82, AR4=drawing 83], the MIC in assay [1] (setting [5]) is 6.3 µg/mL (≈ 6.86 µM); in assay [2] (setting [6]), 3.1 µg/mL (≈ 3.38 µM); in assay [3] (setting [7]), 3.1 µg/mL (≈ 3.38 µM); in assay [4] (setting [8]), over 100 µg/mL.

With `CCC1OC(=O)CC(O)C(C)C(OC2OC(C)C(OC3CC(C)(O)C(O)C(C)O3)C(N(C)C)C2O)C(CC=O)CC(C)C(=O)C=CC(C)=CC1COC(=O)Cc1ccccc1` (centres unmarked) [R1=H, R3=H, AR4=drawing 71], the MIC was 1.6 µg/mL (≈ 1.86 µM) in assay [1] (MS9861, pH 7.5, read-out: minimum inhibitory concentration, Staphylococcus aureus MS9861, tube dilution method, brain heart infusion broth (pH 7.5)); under 0.2 µg/mL in assay [2] (NRRLB558, pH 7.5, read-out: minimum inhibitory concentration, Bacillus subtilis NRRL B558, tube dilution method, brain heart infusion broth (pH 7.5)); 0.4 µg/mL (≈ 0.465 µM) in assay [3] (pH 7.5, read-out: minimum inhibitory concentration, Staphylococcus aureus 209P); 6.3 µg/mL (≈ 7.33 µM) in assay [4] (PCI602, pH 7.5, read-out: minimum inhibitory concentration, Klebsiella pneumoniae PCI602). For the same molecule, in assay [1] (setting [9]), the “minimum inhibitory concentration, Staphylococcus aureus MS9861” value is 3.1 µg/mL (≈ 3.6 µM). For the same molecule, the “minimum inhibitory concentration, Bacillus subtilis NRRL B558” value in assay [2] (setting [9]) stood at 0.4 µg/mL (≈ 0.465 µM).

Regarding `CCC1OC(=O)CC(O)C(C)C(OC2OC(C)C(OC3CC(C)(OC(C)=O)C(OC(=O)CC(C)C)C(C)O3)C(N(C)C)C2O)C(CC=O)CC(C)C(=O)C=CC(C)=CC1COC(C)=O` (centres unmarked) [(R2)=COCH3, R3=drawing 75, AR4=OCOCH3], the MIC stood at 6.3 µg/mL (≈ 6.92 µM) in assay [1] (setting [5]), 1.6 µg/mL (≈ 1.76 µM) in assay [2] (setting [6]), 1.6 µg/mL (≈ 1.76 µM) in assay [3] (setting [7]) and 25 µg/mL (≈ 27.5 µM) in assay [4] (setting [8]).

For `CCC1OC(=O)CC(O)C(C)C(OC2OC(C)C(OC3CC(C)(O)C(O)C(C)O3)C(N(C)C)C2O)C(CC=O)CC(C)C(=O)C=CC(C)=CC1COC(=O)C(NSc1ccccc1[N+](=O)[O-])c1ccccc1` (centres unmarked) [R1=H, R3=H, AR4=drawing 74], the MIC in assay [1] (setting [5]) was 3.1 µg/mL (≈ 3.01 µM); in assay [2] (setting [6]) it was 0.8 µg/mL (≈ 0.778 µM); in assay [3] (setting [7]), 0.8 µg/mL (≈ 0.778 µM); in assay [4] (setting [8]), 3.1 µg/mL (≈ 3.01 µM).

In the case of `CCC1OC(=O)CC(O)C(C)C(OC2OC(C)C(OC3CC(C)(O)C(O)C(C)O3)C(N(C)C)C2O)C(CC=O)CC(C)C(=O)C=CC(C)=CC1CSC` (centres unmarked) [R1=H, R3=H, AR4=SCH3, 23-Deoxy-23-methylthio-YO-9010], the MIC is 1.6 µg/mL (≈ 2.07 µM) in assay [1] (setting [5]), 0.8 µg/mL (≈ 1.04 µM) in assay [2] (setting [6]), 0.8 µg/mL (≈ 1.04 µM) in assay [3] (setting [7]) and 6.3 µg/mL (≈ 8.16 µM) in assay [4] (setting [8]).

In the case of `CCC1OC(=O)CC(O)C(C)C(OC2OC(C)C(OC3CC(C)(O)C(OC(=O)CSc4ccccc4)C(C)O3)C(N(C)C)C2O)C(CC=O)CC(C)C(=O)C=CC(C)=CC1COC(C)=O` (centres unmarked) [R1=H, R3=drawing 76, AR4=OCOCH3], the MIC in assay [1] (setting [5]) came to 1.6 µg/mL (≈ 1.71 µM); in assay [2] (setting [6]), 0.2 µg/mL (≈ 0.214 µM); in assay [3] (setting [7]), 0.8 µg/mL (≈ 0.856 µM); in assay [4] (setting [8]), 100 µg/mL (≈ 107 µM).

On to `CCC1OC(=O)CC(O)C(C)C(OC2OC(C)C(OC3CC(C)(O)C(O)C(C)O3)C(N(C)C)C2O)C(CC=O)CC(C)C(=O)C=CC(C)=CC1CO` (centres unmarked) [Antibiotic YO9010, 23-demycinosyltylosin, reference compound], for which the MIC in assay [1] (setting [5]) is 3.1 µg/mL (≈ 4.18 µM); in assay [2] (setting [6]), 1.6 µg/mL (≈ 2.16 µM); in assay [3] (setting [7]) it was 0.8 µg/mL (≈ 1.08 µM); in assay [4] (setting [8]) it was 12.5 µg/mL (≈ 16.8 µM).

For the molecule `CCC1OC(=O)CC(OC(C)=O)C(C)C(OC2OC(C)C(OC3CC(C)(O)C(OC(=O)CC(C)C)C(C)O3)C(N(C)C)C2O)C(CC=O)CC(C)C(=O)C=CC(C)=CC1CO` (centres unmarked) [N-1 substance, 3-O-acetyl-4"-O-isovaleryl-YO-9010, reference compound], the MIC was found to be 1.6 µg/mL (≈ 1.84 µM) in assay [1] (setting [5]), 0.8 µg/mL (≈ 0.922 µM) in assay [2] (setting [6]), 0.4 µg/mL (≈ 0.461 µM) in assay [3] (setting [7]) and 3.1 µg/mL (≈ 3.57 µM) in assay [4] (setting [8]).

On to `CCC1OC(=O)CC(O)C(C)C(OC2OC(C)C(OC3CC(C)(O)C(OC(=O)CC(C)C)C(C)O3)C(N(C)C)C2O)C(CC=O)CC(C)C(=O)C=CC(C)=CC1CBr` (centres unmarked) [R1=H, R3=drawing 68, AR4=Br, 23-Deoxy-23-bromo-4"-O-isovaleryl-YO-9010], for which the MIC in assay [1] (setting [5]) is 1.6 µg/mL (≈ 1.8 µM); in assay [2] (setting [6]), 0.4 µg/mL (≈ 0.45 µM); in assay [3] (setting [7]) it was 0.8 µg/mL (≈ 0.9 µM); in assay [4] (setting [8]) it was 6.3 µg/mL (≈ 7.09 µM).

`CCC1OC(=O)CC(O)C(C)C(OC2OC(C)C(OC3CC(C)(O)C(OC(=O)CC(C)C)C(C)O3)C(N(C)C)C2O)C(CC=O)CC(C)C(=O)C=CC(C)=CC1CO` (centres unmarked) [R1=H, R3=drawing 66, AR4=OH, 4"-O-isovaleryl-YO-9010]: the MIC was 1.6 µg/mL (≈ 1.94 µM) in assay [1] (setting [5]), 0.8 µg/mL (≈ 0.968 µM) in assay [2] (setting [6]), 0.4 µg/mL (≈ 0.484 µM) in assay [3] (setting [7]) and 1.6 µg/mL (≈ 1.94 µM) in assay [4] (setting [8]).

Regarding `CCC1OC(=O)CC(O)C(C)C(OC2OC(C)C(OC3CC(C)(O)C(O)C(C)O3)C(N(C)C)C2O)C(CC=O)CC(C)C(=O)C=CC(C)=CC1CSc1ccccc1` (centres unmarked) [R1=H, R3=H, AR4=drawing 80], the MIC in assay [1] (setting [5]) was 1.6 µg/mL (≈ 1.92 µM); in assay [2] (setting [6]), under 0.2 µg/mL; in assay [3] (setting [7]) it was under 0.2 µg/mL; in assay [4] (setting [8]), 25 µg/mL (≈ 30 µM).
